This is an account of results in patent publication US20100297109A1, “METHODS FOR INHIBITING FASCIN” (Cornell University, priority 2007, published 2010).

For one data set, the target named is fascin (Homo sapiens, UniProt Q16658). Description: GST-fascin and biotin-macroketone interaction. The arrangement: made in house; host or cells: Escherichia coli BL21. The format is binding. Conditions: excess unlabeled compound. The procedure: Whole cell lysates from 4T1 mouse breast tumor cells were made. After preclearing the cell lysate with immobilized neutravidin biotin binding protein (Pierce, IL, USA) to remove biotin and avidin-binding proteins, the cell lysates were loaded to a column packed with the biotin-labeled macroketone (conjugated to neutravidin beads). A control column packed with free biotin and neutravidin beads was run side-by-side. After washing the column with 10 bed volumes of lysis buffer with 300 mM NaCl, the bound proteins were eluted with 0.1 M Glycine-HCl at pH 2.8 according to the manufacturer's instruction. […] Protein Expression and Purification. Recombinant GST-fascin fusion protein was produced in BL21 Escherichia coli. A 1-liter culture was grown to an A600 reading of 1.0 and then induced by addition of 0.3 mM isopropyl 1-thio-D-galactopyranoside (IPTG) for 12 hours at 25° C. Cells were flash frozen and then lysed by sonication in Tris-buffered saline. The supernatant was then incubated with glutathione-Sepharose for 2 h at 4° C. After extensive washing, GST-fascin was eluted and concentrated with a Centricon Plus-20 (Millipore). To remove the GST tag from the fusion protein, beads were incubated with thrombin overnight at 4° C. The supernatant was collected and concentrated. GST-fascin and Biotin-macroketone Interaction. […] Proteins associated with biotin-macroketone were precipitated with Untralink-immobilized NeutrAvidin agarose (Pierce). After extensive washing, bound proteins were eluted with SDS sample buffer and resolved by 10% SDS-PAGE. F-Actin Bundling Assay. Actin bundling activity was measured by low speed centrifugation assay and fluorescence microscopy. In low-speed centrifugation assay, monomeric rabbit G-actin was induced to polymerize at room temperature in F-actin buffer (20 mM Tris-HCl at pH 8, 1 mM ATP, 1 mM DTT, 2 mM MgCl2 and 100 mM KCl). Recombinant fascin proteins or control buffer were subsequently incubated with F-actin for 60 min at room temperature and centrifuged for 30 min at 10,000 g in an Eppendorf 5415D table-top centrifuge.

Data set [1] has as its system 4T1 cells. Nature of the data set: Boyden chamber cell migration assay, serum-induced migration of 4T1 cells. The format is cell-based, mouse. The conditions noted are these: FIGS. 1C and 1D. The protocol:
(§1) Cells. Mouse 4T1 mammary tumor cells and human MDA-MB-231 breast tumor cells were obtained from ATCC and have been described previously (Shan et al. 2005, Yang et al. 2005). 4T1 cells were cultured in RPMI 1640 medium supplemented with 10% FBS. MDA-MB-231 cells were cultured in DMEM supplemented with 10% FBS. Wound-healing assay. The wound-healing assay involves observing whether confluent cells can migrate across a scrape or wound in the cell layer. Cell migration assays were performed as described previously (Yang et al. 2005, Shan et al 2006). Tumor cells were plated in a 24-well plate coated with gelatin in standard media. […] Photographs several random regions of the filter facing the second chamber are taken and the number of cells counted to calculate the average number of cells that had transmigrated.
(§2) Boyden Chamber Cell Migration Assay. […] Three randomly selected fields (10× objectives) on the lower side of the insert were photographed, and the migrated cells were counted. The migration was expressed as either the average number of migrated cells in a field or as percentage of migrated cells in positive control. Percentage was calculated with the formula P=100×(M−Mnc)/Mpc, where P is the percentage of migrated cells, M is the number of migrated cells, Mnc is the number of migrated cells in negative controls, and Mpc is the number of migrated cells in positive controls.

Data set [2] relates to 4T1 cells. The conditions noted are these: serum, Shan et al. 2005; cited from earlier work.
Data set [3] deals with human colon tumor Lovo cells. Nature of the data set: Cell migration assay, Lovo cells. The format is cell-based.
The test system of data set [4] is mouse breast tumor 4T1 cells. Nature of the data set: Wound-healing assay, serum-induced migration of 4T1 cells. The conditions noted are these: 2 μM. The format is cell-based. The protocol:
as §1, with “media. After the cells grew to confluence, wounds were made in the confluent layer of cell using a sterile instrument such as a sterile pipette tip. The cells were washed with Phosphate Buffered Saline (PBS) or other sterile solutions and then the migration was induced by adding medium supplemented with 10% FBS. When the wound for the positive control closed, cells were fixed with 3.7% formaldehyde and stained with crystal violet staining solution.” for “media.”

The test system of data set [5] is human breast tumor MDA-MB 231 cells. Nature of the data set: Cell migration assay, MDA-MB-231 cells. It is filed as cell-based. The procedure:
as §1, §2

The test system of data set [6] is human prostate tumor PC-3 cells. Description: Cell migration assay, PC-3 cells. It is filed as cell-based.
For data set [7], the system named is human breast tumor MDA-MB-231 cells. Description: Wound-healing assay, serum-induced migration of MDA-MB-231 cells. The format is cell-based. Conditions: 20 μM. The procedure:
as §1, with “media. After the cells grew to confluence, wounds were made in the confluent layer of cell using a sterile instrument such as a sterile pipette tip. The cells were washed with Phosphate Buffered Saline (PBS) or other sterile solutions and then the migration was induced by adding medium supplemented with 10% FBS. When the wound for the positive control closed, cells were fixed with 3.7% formaldehyde and stained with crystal violet staining solution.” for “media.”

Data set [8] deals with mouse embryonic fibroblast (MEF) cells. Description: Wound-healing assay, serum-induced migration of MEF cells. The conditions noted are these: 200 μM. It is filed as cell-based.
For another data set, the system named is 4T1 tumor cells. Nature of the data set: 4T1 mouse mammary tumor model, spontaneous lung metastasis. It is filed as in vivo.
The subject of data set [9] is 4T1 cells. Conditions: read-out: IC50, 4T1 cell migration, cited from earlier work.
The conditions of data set [10]: Gaul et al. 2004; cited from earlier work.
The test system of data set [11] is several types of tumor cells. Conditions: Nakae et al. 2000, cited from earlier work.
[12] abbreviates: Njardarson et al. 2004, Gaul et al. 2004.

Read-outs that look alike come from different tables or passages of the source.

Take `COC1C=CCCCCC(=O)NCC(C)=CC(C)C1O` (centres unmarked) [macrolactam, Migrastatin lactam]: the “competition of binding of biotin-conjugated macroketone to fascin” value at fascin was “competed the binding”. This compound also yielded an IC50 in the data set on 4T1 cells [1] of 0.255 µM. Also, in the data set on 4T1 cells [2], the “formation of lamellipodia at the leading edge” value is “inhibited the formation of lamellipodia”. Also, the inhibition of migration result in data set [3], in data set [5] and in data set [6] was “inhibited the migration” throughout. For the same compound, the “inhibition of serum-induced migration (wound-healing)” value in [4] and in [7] was “inhibited the migration” in each case. In addition, the “effect on serum-induced migration (wound-healing)” value in data set [8] was “had no effect”.

Turning to `COC1C=CCCCCC(=O)OCC(C)=CC(C)C1O` (centres unmarked) [macrolactone], the “effect on 4T1 tumor metastasis” value in the data set with 4T1 tumor cells (20 mg/kg) was “statistically significant, it was much less than those of macroketone and macrolactam”. In the data set with 4T1 cells [9] (macrolactone, Gaul et al. 2004), the IC50 is 0.024 µM. The “half-life in mouse plasma” value in data set [10] is below 5 min.

In the case of `C=CC(OC)C(O[Si](C)(C)C(C)(C)C)C(C)C=C(C)CO` (centres unmarked) [migrastatin semi-core, reference compound], the “effect on 4T1 tumor metastasis” value with 4T1 tumor cells (10 and 20 mg/kg) is given as “did not significantly reduce”. The IC50 in the data set on 4T1 cells [9] (setting [12]) is 40 µM.

Take `CO[C@H]1/C=C/CC/C=C/C(=O)OC([C@H](C)C(=O)CCCC2CC(=O)NC(=O)C2)/C(C)=C\[C@@H](C)[C@@H]1O` (some centres unmarked) [migrastatin, Migrastatin]: in data set [11], the “biosyntheses of DNA, RNA, and protein” value is on record as “has no effect”. Further, in data set [11] (high micromolar concentrations), the “migration of tumor cells in vitro” value was “inhibits the migration”. For the same compound, the IC50 in the data set on 4T1 cells [9] (setting [12]) is 29 µM.
